The record followed here is US11759462B2, “Spirocyclic compounds as tryptophan hydroxylase inhibitors” (priority 2013, dated 2023).

SMILES strings stand for the structures. Some results are limits rather than exact numbers.

The test concerns the target T1, Recombinant human TPH1 (MBP tagged) (Homo sapiens, UniProt P17752).
T1 construct: cloning full length human TPH1 cDNA in to a bacterial pMAL-c5E expression vector; made in house; host or cells: E. coli BL21 (DE3)
T1 sequence (P17752 1-444): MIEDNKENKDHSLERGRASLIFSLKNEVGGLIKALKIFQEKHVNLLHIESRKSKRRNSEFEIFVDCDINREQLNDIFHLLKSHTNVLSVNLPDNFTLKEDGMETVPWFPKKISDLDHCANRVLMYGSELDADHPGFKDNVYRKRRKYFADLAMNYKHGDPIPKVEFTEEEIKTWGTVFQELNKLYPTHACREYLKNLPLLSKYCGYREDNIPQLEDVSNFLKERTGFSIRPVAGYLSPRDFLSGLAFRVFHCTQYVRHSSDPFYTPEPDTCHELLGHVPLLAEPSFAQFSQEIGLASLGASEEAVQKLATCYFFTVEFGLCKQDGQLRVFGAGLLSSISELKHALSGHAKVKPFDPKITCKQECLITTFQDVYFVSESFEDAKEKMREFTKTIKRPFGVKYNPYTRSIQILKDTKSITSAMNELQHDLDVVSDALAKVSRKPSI
In words: TPH1 in vitro inhibition assay (kinetic fluorescence). It is filed as biochemical. Conditions: read-out: TPH1 Range (TPH1 inhibition IC50). In outline: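 Final mix: 15 nM MBP-TPH1, 30 μM Trp, 36 μM 6-methyltetrahydropterin, 25 μM ferrous ammonium sulfate, 50 mM MES pH 7.1, 1% DMSO, room temperature.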
With `COc1cc(-c2ccc([C@@H](Oc3cc(N4CCC5(CC4)CN[C@H](C(=O)O)C5)nc(C)n3)C(F)(F)F)c(-n3ccc(C)n3)c2)ccn1` [Example 29a, (S)-8-(2-methyl-6-((R)-2,2,2-trifluoro-1-(4-(2-methoxypyridin-4-yl)-2-(3-methyl-1H-pyrazol-1-yl)phenyl)ethoxy)pyrimidin-4-yl)-2,8-diazaspiro[4.5]decane-3-carboxylic acid], the IC50 (in general, the concentration that gives 50% inhibition) was below 50 nM.
With `Cc1ccn(-c2cc(-c3ccc(S(C)(=O)=O)cc3)ccc2[C@@H](Oc2cc(N3CCC4(CC3)CN[C@H](C(=O)O)C4)nc(C)n2)C(F)(F)F)n1` [Example 29b, (S)-8-(2-methyl-6-((R)-2,2,2-trifluoro-1-(3-(3-methyl-1H-pyrazol-1-yl)-4′-(methylsulfonyl)-[1,1′-biphenyl]-4-yl)ethoxy)pyrimidin-4-yl)-2,8-diazaspiro[4.5]decane-3-carboxylic acid] the figure was below 50 nM; with `Cc1ccn(-c2cc(-c3ccc(F)c(F)c3)ccc2[C@@H](Oc2cc(N3CCC4(CC3)CN[C@H](C(=O)O)C4)nc(C)n2)C(F)(F)F)n1` [Example 29c, (S)-8-(6-((R)-1-(3′,4′-difluoro-3-(3-methyl-1H-pyrazol-1-yl)-[1,1′-biphenyl]-4-yl)-2,2,2-trifluoroethoxy)-2-methylpyrimidin-4-yl)-2,8-diazaspiro[4.5]decane-3-carboxylic acid], 50 to 300 nM; with `Cc1ccn(-c2cc(-c3ccc(C)c(C)c3)ccc2[C@@H](Oc2cc(N3CCC4(CC3)CN[C@H](C(=O)O)C4)nc(C)n2)C(F)(F)F)n1` [Example 29d, (S)-8-(6-((R)-1-(3′,4′-dimethyl-3-(3-methyl-1H-pyrazol-1-yl)-[1,1′-biphenyl]-4-yl)-2,2,2-trifluoroethoxy)-2-methylpyrimidin-4-yl)-2,8-diazaspiro[4.5]decane-3-carboxylic acid], below 50 nM.
As for `CCOC(=O)c1cccc(-c2ccc([C@@H](Oc3cc(N4CCC5(CC4)CN[C@H](C(=O)O)C5)nc(C)n3)C(F)(F)F)c(-n3ccc(C)n3)c2)c1` [Example 29e, (S)-8-(6-((R)-1-(3′-(ethoxycarbonyl)-3-(3-methyl-1H-pyrazol-1-yl)-[1,1′-biphenyl]-4-yl)-2,2,2-trifluoroethoxy)-2-methylpyrimidin-4-yl)-2,8-diazaspiro[4.5]decane-3-carboxylic acid], the concentration for half-maximal inhibition (IC50) fell in the range of 50 to 300 nM.
With `COc1ccc(-c2ccc([C@@H](Oc3cc(N4CCC5(CC4)CN[C@H](C(=O)O)C5)nc(C)n3)C(F)(F)F)c(-n3ccc(C)n3)c2)cn1` [Example 29f, (S)-8-(2-methyl-6-((R)-2,2,2-trifluoro-1-(4-(6-methoxypyridin-3-yl)-2-(3-methyl-1H-pyrazol-1-yl)phenyl)ethoxy)pyrimidin-4-yl)-2,8-diazaspiro[4.5]decane-3-carboxylic acid] the figure was below 50 nM; with `COc1ncc(-c2ccc([C@@H](Oc3cc(N4CCC5(CC4)CN[C@H](C(=O)O)C5)nc(C)n3)C(F)(F)F)c(-n3ccc(C)n3)c2)cn1` [Example 29g, (S)-8-(2-methyl-6-((R)-2,2,2-trifluoro-1-(4-(2-methoxypyrimidin-5-yl)-2-(3-methyl-1H-pyrazol-1-yl)phenyl)ethoxy)pyrimidin-4-yl)-2,8-diazaspiro[4.5]decane-3-carboxylic acid], below 50 nM.
As to `COc1ccc(-c2ccc([C@@H](Oc3cc(N4CCC5(CC4)CN[C@H](C(=O)O)C5)nc(C)n3)C(F)(F)F)c(-n3ccc(C)n3)c2)c(OC)c1` [Example 29h, (S)-8-(6-((R)-1-(2′,4′-dimethoxy-3-(3-methyl-1H-pyrazol-1-yl)-[1,1′-biphenyl]-4-yl)-2,2,2-trifluoroethoxy)-2-methylpyrimidin-4-yl)-2,8-diazaspiro[4.5]decane-3-carboxylic acid], the IC50 was below 50 nM.
For `CCOC(=O)c1ccc(-c2ccc([C@@H](Oc3cc(N4CCC5(CC4)CN[C@H](C(=O)O)C5)nc(C)n3)C(F)(F)F)c(-n3ccc(C)n3)c2)cc1` [Example 29i, (S)-8-(6-((R)-1-(4′-(ethoxycarbonyl)-3-(3-methyl-1H-pyrazol-1-yl)-[1,1′-biphenyl]-4-yl)-2,2,2-trifluoroethoxy)-2-methylpyrimidin-4-yl)-2,8-diazaspiro[4.5]decane-3-carboxylic acid] the value was below 50 nM; for `Cc1ccn(-c2cc(-c3ccc(C(=O)N(C)C)cc3)ccc2[C@@H](Oc2cc(N3CCC4(CC3)CN[C@H](C(=O)O)C4)nc(C)n2)C(F)(F)F)n1` [Example 29j, (S)-8-(6-((R)-1-(4′-(dimethylcarbamoyl)-3-(3-methyl-1H-pyrazol-1-yl)-[1,1′-biphenyl]-4-yl)-2,2,2-trifluoroethoxy)-2-methylpyrimidin-4-yl)-2,8-diazaspiro[4.5]decane-3-carboxylic acid], below 50 nM; for `COc1ncccc1-c1ccc([C@@H](Oc2cc(N3CCC4(CC3)CN[C@H](C(=O)O)C4)nc(C)n2)C(F)(F)F)c(-n2ccc(C)n2)c1` [Example 29k, (S)-8-(2-methyl-6-((R)-2,2,2-trifluoro-1-(4-(2-methoxypyridin-3-yl)-2-(3-methyl-1H-pyrazol-1-yl)phenyl)ethoxy)pyrimidin-4-yl)-2,8-diazaspiro[4.5]decane-3-carboxylic acid], 50 to 300 nM.
For `COc1ccc(-c2ccc([C@@H](Oc3cc(N4CCC5(CC4)CN[C@H](C(=O)O)C5)nc(C)n3)C(F)(F)F)c(-n3ccc(C)n3)c2)cc1F` [Example 29l, (S)-8-(2-methyl-6-((R)-2,2,2-trifluoro-1-(3′-fluoro-4′-methoxy-3-(3-methyl-1H-pyrazol-1-yl)-[1,1′-biphenyl]-4-yl)ethoxy)pyrimidin-4-yl)-2,8-diazaspiro[4.5]decane-3-carboxylic acid] the value was below 50 nM; for `Cc1ccn(-c2cc(-c3cccc(C(=O)N(C)C)c3)ccc2[C@@H](Oc2cc(N3CCC4(CC3)CN[C@H](C(=O)O)C4)nc(C)n2)C(F)(F)F)n1` [Example 29m, (S)-8-(6-((R)-1-(3′-(dimethylcarbamoyl)-3-(3-methyl-1H-pyrazol-1-yl)-[1,1′-biphenyl]-4-yl)-2,2,2-trifluoroethoxy)-2-methylpyrimidin-4-yl)-2,8-diazaspiro[4.5]decane-3-carboxylic acid], 50 to 300 nM; for `Cc1cc(C)c(-c2ccc([C@@H](Oc3cc(N4CCC5(CC4)CN[C@H](C(=O)O)C5)nc(C)n3)C(F)(F)F)c(-n3ccc(C)n3)c2)c(C)c1` [Example 29n, (S)-8-(2-methyl-6-((R)-2,2,2-trifluoro-1-(2′,4′,6′-trimethyl-3-(3-methyl-1H-pyrazol-1-yl)-[1,1′-biphenyl]-4-yl)ethoxy)pyrimidin-4-yl)-2,8-diazaspiro[4.5]decane-3-carboxylic acid], 50 to 300 nM.
In the case of `Cc1ccn(-c2cc(-c3ccc(OC(C)C)cc3)ccc2[C@@H](Oc2cc(N3CCC4(CC3)CN[C@H](C(=O)O)C4)nc(C)n2)C(F)(F)F)n1` [Example 29o, (S)-8-(2-methyl-6-((R)-2,2,2-trifluoro-1-(4′-isopropoxy-3-(3-methyl-1H-pyrazol-1-yl)-[1,1′-biphenyl]-4-yl)ethoxy)pyrimidin-4-yl)-2,8-diazaspiro[4.5]decane-3-carboxylic acid], the IC50 was below 50 nM.
`COc1ccccc1-c1ccc([C@@H](Oc2cc(N3CCC4(CC3)CN[C@H](C(=O)O)C4)nc(C)n2)C(F)(F)F)c(-n2ccc(C)n2)c1` [Example 29p, (S)-8-(2-methyl-6-((R)-2,2,2-trifluoro-1-(2′-methoxy-3-(3-methyl-1H-pyrazol-1-yl)-[1,1′-biphenyl]-4-yl)ethoxy)pyrimidin-4-yl)-2,8-diazaspiro[4.5]decane-3-carboxylic acid]: the IC50 is below 50 nM.
Take `COC(=O)c1ccc(-c2ccc([C@@H](Oc3cc(N4CCC5(CC4)CN[C@H](C(=O)O)C5)nc(C)n3)C(F)(F)F)c(-n3ccc(C)n3)c2)cc1OC` [Example 29q, (S)-8-(2-methyl-6-((R)-2,2,2-trifluoro-1-(3′-methoxy-4′-(methoxycarbonyl)-3-(3-methyl-1H-pyrazol-1-yl)-[1,1′-biphenyl]-4-yl)ethoxy)pyrimidin-4-yl)-2,8-diazaspiro[4.5]decane-3-carboxylic acid]: the IC50 was below 50 nM.
For `Cc1ccn(-c2cc(-c3ccc(C(C)(C)C)cc3)ccc2[C@@H](Oc2cc(N3CCC4(CC3)CN[C@H](C(=O)O)C4)nc(C)n2)C(F)(F)F)n1` [Example 29r, (S)-8-(6-((R)-1-(4′-(tert-butyl)-3-(3-methyl-1H-pyrazol-1-yl)-[1,1′-biphenyl]-4-yl)-2,2,2-trifluoroethoxy)-2-methylpyrimidin-4-yl)-2,8-diazaspiro[4.5]decane-3-carboxylic acid] the value was below 50 nM; for `CCOc1ccc(-c2ccc([C@@H](Oc3cc(N4CCC5(CC4)CN[C@H](C(=O)O)C5)nc(C)n3)C(F)(F)F)c(-n3ccc(C)n3)c2)cc1` [Example 29s, (S)-8-(6-((R)-1-(4′-ethoxy-3-(3-methyl-1H-pyrazol-1-yl)-[1,1′-biphenyl]-4-yl)-2,2,2-trifluoroethoxy)-2-methylpyrimidin-4-yl)-2,8-diazaspiro[4.5]decane-3-carboxylic acid], below 50 nM.
